This passage reports GI50 and TGI results from PubChem BioAssay (NCI).

What all share (test): DTP human tumour cell line panel, 48 h
For assay [1], the system named is DU-145 prostate.
Assay [2] deals with HCC-2998 colon.
Assay [3] concerns HOP-92 NSCLC.
For assay [4], the system named is MCF7 breast.
Assay [5] concerns MOLT-4 leukemia.
Assay [6] deals with NCI-H522 lung.
The test system of assay [7] is RXF 393 renal.
For assay [8], the system named is SF-268 CNS.
For assay [9], the system named is SK-MEL-28 melanoma.
Assay [10] has as its system TK-10 renal.

The structures appear in SMILES notation.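 Test compounds were applied to cells in 96-well plates for 48 hours at 5 doses. GI50 is the concentration that inhibits growth by half. TGI: total growth inhibition.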

In the case of `C[n+]1c(/C=C/c2c(O)ccc3ccccc23)ccc2ccccc21`, the GI50 in assay [1] was 6.76 µM; in assay [2], 6.63 µM; in assay [3], 0.854 µM; in assay [4], 1.12 µM; in [5], 7.01 µM; in assay [6], 2.52 µM. The GI50 was 4.54 µM in assay [7], 7.19 µM in assay [8], 7.91 µM in assay [9] and 5.49 µM in assay [10]. Besides, the concentration for total growth inhibition (TGI) in assay [1] turned out to be 13.9 µM; in assay [2], 13.4 µM; in assay [3], 6.17 µM; in assay [4] it was 7.89 µM; in assay [5], 23.4 µM; in assay [6], 10.2 µM. For the same compound, the TGI is 10.7 µM in [7], 16.7 µM in [8], 15.1 µM in assay [9] and 11.7 µM in [10].
On to `COC(=O)/C=C\C(C#N)(C#N)N=Cc1ccc(C)cc1`, for which the TGI was found to be 15.7 µM in assay [1]; 35.3 µM in assay [2]; 3.6 µM in [3]; 3.68 µM in assay [4]; 3.77 µM in assay [5]; 1.64 µM in assay [6]. The TGI was 3.9 µM in [7], 9.33 µM in assay [8], 19.8 µM in [9] and 3.65 µM in [10].
As for `NCCCN1c2ccccc2Sc2ccc(Cl)cc21`, the TGI in assay [1] is above 10 µM; in [2] it was 4.2 µM; in [3] it was above 10 µM; in assay [4], 3.21 µM; in assay [5] it was above 10 µM; in assay [6], above 5.15 µM. For the same compound, the TGI in [7], in [8], in assay [9] and in assay [10] was above 10 µM throughout.
As for `CCOS(C)(=O)=O`, the concentration for total growth inhibition (TGI) was above 100 µM in [1]; above 100 µM in assay [2]; 30.7 µM in assay [3]; above 100 µM in assay [4]; above 100 µM in [5]; above 100 µM in assay [6]. Moreover, the TGI in [7], in assay [8], in assay [9] and in assay [10] was above 100 µM each time.
Consider `C/C(C[n+]1ccccc1)=N\N=C(N)N`, for which the TGI in assay [1], in assay [2], in assay [3], in assay [4], in assay [5] and in [6] was above 100 µM each time. Moreover, the TGI in assay [7], in assay [8], in assay [9] and in [10] was above 100 µM each time.
As to `CCCCCCCCCCCC[S+](C)C`, the TGI in assay [1] is 17.6 µM; in assay [2] it was 16.8 µM; in assay [3] it was 9.48 µM; in assay [4] it was 24.5 µM; in assay [5], 28.2 µM; in assay [6], 15.6 µM. Moreover, the TGI in [7] was 9.38 µM; in assay [8], 20.2 µM; in assay [9], 25.3 µM; in assay [10] it was 18.3 µM.
Take `Oc1cc(Cl)cc2cccnc12`: the total growth inhibition concentration (TGI) is above 89.7 µM in assay [1]; above 70 µM in [2]; above 100 µM in assay [3]; 7.87 µM in assay [4]; 3.98 µM in assay [5]; 5.32 µM in assay [6]. Besides, the TGI in assay [7] was 42.9 µM; in assay [8], above 39.5 µM; in assay [9], above 100 µM; in assay [10], above 100 µM.
For the compound `C=C(C(=O)OCC)C(=O)OCC`, the TGI in assay [1], in [2], in assay [3], in assay [4], in assay [5] and in [6] was above 100 µM each time. Further, the TGI in assay [7], in [8], in assay [9] and in assay [10] was above 100 µM in each case.
In the case of `CSc1cc(-c2cccs2)sc1-c1cc(SC)c(-c2sc(-c3sc(-c4cccs4)cc3SC)cc2SC)s1`, the TGI in assay [1], in assay [2], in assay [3], in [4], in [5] and in assay [6] was above 100 µM in each case. In addition, the TGI in assay [7], in assay [8], in assay [9] and in assay [10] was above 100 µM each time.
With `COc1ccc(C2OC(c3ccncc3)=NN2C)cc1F` (stereo not given), the concentration for total growth inhibition (TGI) in assay [1], in assay [2], in assay [3], in [4], in [5] and in [6] was above 100 µM throughout. The TGI in [7], in assay [8], in [9] and in assay [10] was above 100 µM each time.
For `O=C1NC(N2CCOCC2)=N/C1=C\c1ccco1`, the TGI in assay [1], in [2], in assay [3], in assay [4], in [5] and in assay [6] was above 100 µM each time. The TGI in assay [7], in assay [8], in assay [9] and in [10] was above 100 µM in each case.
Consider `C/C(=N\N=C1/C(=O)OC(c2ccccc2)=C1C(=O)c1ccccc1)c1ccc([N+](=O)[O-])cc1`, for which the TGI was above 100 µM in assay [1]; above 100 µM in assay [2]; 83.3 µM in assay [3]; above 100 µM in assay [4]; 52.7 µM in [5]; 83.5 µM in assay [6]. Besides, the TGI in assay [7], in assay [8], in [9] and in assay [10] was above 100 µM throughout.
`N#CC(C#N)=C1SC(=Nc2ccccc2)C(=Nc2ccccc2)N1c1ccccc1`: the TGI in assay [1] is above 100 µM; in assay [2], above 72 µM; in assay [3] it was 15.6 µM; in assay [4], above 58.7 µM; in [5] it was 11.8 µM; in [6] it was 4.08 µM. Also, the TGI in assay [7] is 45.5 µM; in assay [8] it was above 66.7 µM; in assay [9], above 58 µM; in [10], above 100 µM.
`Cc1nc(C)c(N2CCN([N+](=O)[O-])CC2)c(=O)[nH]1`: the TGI in [1], in assay [2], in [3], in assay [4], in [5] and in assay [6] was above 100 µM throughout. Besides, the TGI in [7], in assay [8], in assay [9] and in [10] was above 100 µM each time.
With `COc1cc2c(cc1OC)C1C3CCCCC3CCN1CC2` (stereo not given), the concentration for total growth inhibition (TGI) in assay [1], in [2], in assay [3], in assay [4], in assay [5] and in assay [6] was above 100 µM in each case. Also, the TGI in assay [7], in assay [8], in assay [9] and in [10] was above 100 µM throughout.
For `Cc1ccc(S(=O)(=O)n2c3c(c4ccccc42)CCN2C[C@H]([C@H](C)Br)CC[C@@H]32)cc1`, the TGI in assay [1], in [2], in assay [3], in assay [4], in assay [5] and in assay [6] was above 100 µM throughout. The TGI in assay [7], in [8], in assay [9] and in assay [10] was above 100 µM each time.
Turning to `Clc1ccc(-c2nnc3sc4nc5ccccc5c-4nn23)c(Cl)c1`, the TGI in assay [1] is above 100 µM; in assay [2], above 100 µM; in [3] it was 68.8 µM; in assay [4], above 100 µM; in assay [5] it was above 100 µM; in [6], above 100 µM. Further, the TGI in [7], in assay [8], in [9] and in assay [10] was above 100 µM in each case.
In the case of `Cc1cc(/N=C/c2ccc(N(C)C)cc2)n(-c2ccccc2)n1`, the TGI was above 100 µM in [1]; 61.7 µM in [2]; above 100 µM in assay [3]; above 100 µM in assay [4]; above 100 µM in [5]; above 100 µM in assay [6]. The TGI in assay [7], in [8], in assay [9] and in assay [10] was above 100 µM each time.
In the case of `CC(C)SC(=S)Sc1c(Cl)c(Cl)nc(Cl)c1Cl`, the TGI in assay [1] was determined as 11.3 µM; in assay [2], 12.7 µM; in [3], 21.4 µM; in assay [4] it was 15.7 µM; in assay [5], 8.69 µM; in [6], 11.6 µM. The TGI was 9.17 µM in [7], 32.9 µM in assay [8], above 100 µM in assay [9] and 18.4 µM in assay [10].
Turning to `NC(=O)c1c(NC(=O)c2ccccc2)sc2c1CCC(=O)C2`, the GI50 in assay [1] was 4.14 µM; in assay [2], 2.1 µM; in [3] it was 1.42 µM; in assay [4], 1.82 µM; in assay [5], 1.12 µM; in assay [6], 0.346 µM. Also, the GI50 in assay [7] is 1.17 µM; in assay [8] it was 2.81 µM; in assay [9] it was 2.88 µM; in assay [10], 6.91 µM. The total growth inhibition concentration (TGI) in [1] was above 100 µM; in assay [2], 11 µM; in assay [3] it was 4.99 µM; in assay [4] it was 9.02 µM; in [5] it was 8.3 µM; in [6], 2.14 µM. Also, the TGI in assay [7] is 5.46 µM; in assay [8], above 100 µM; in assay [9], 19.2 µM; in assay [10] it was above 100 µM.
With `O=S(=O)(O)C(CO)c1ccccc1` (stereo not given) (tested in a mixture with another compound), the TGI in assay [1], in assay [2], in assay [3], in [4], in [5] and in assay [6] was above 100 µM throughout. Moreover, the TGI in assay [7], in [8], in assay [9] and in assay [10] was above 100 µM in each case.
Consider `C[C@H](CCC(=O)O)[C@H]1CC[C@H]2[C@@H]3C(=O)C[C@@H]4C[C@H](O)CC[C@]4(C)[C@H]3C[C@H](O)[C@]12C`, for which the total growth inhibition concentration (TGI) in assay [1], in [2], in assay [3], in assay [4], in assay [5] and in [6] was above 100 µM in each case. Besides, the TGI in assay [7], in assay [8], in assay [9] and in [10] was above 100 µM in each case.
For the compound `CC(C)(C)[Si](C)(C)OCC1OC(n2ccc(=O)[nH]c2=O)C(O[Si](C)(C)C(C)(C)C)/C1=C/C#N` (stereo not given), the TGI in [1] is above 100 µM; in assay [2], above 100 µM; in assay [3], above 68.8 µM; in assay [4] it was above 61.9 µM; in assay [5], above 21.1 µM; in assay [6] it was above 100 µM. The TGI was 11.9 µM in assay [7], above 100 µM in assay [8], above 71.5 µM in [9] and above 44 µM in assay [10].
For `O=C1OC(C2Cc3ccc4ccccc4c3C2=O)c2ccccc21` (stereo not given), the TGI in assay [1], in [2], in [3], in assay [4], in assay [5] and in assay [6] was above 100 µM throughout. For the same compound, the TGI in assay [7] was 49.5 µM; in assay [8], above 100 µM; in assay [9] it was above 100 µM; in assay [10], above 100 µM.
As for `CC(C)c1cc2c(c(O)c1O)[C@@]1(C(=O)O)CCCC(C)(C)[C@@H]1CC2`, the TGI was above 100 µM in assay [1]; 28.8 µM in assay [2]; 20.8 µM in assay [3]; 45.2 µM in [4]; 37.2 µM in assay [5]; 25.8 µM in assay [6]. Moreover, the TGI in assay [7] amounted to 66.7 µM; in [8] it was 41.3 µM; in assay [9] it was 29.8 µM; in assay [10] it was 31.5 µM.
With `N#CNC(=NCc1ccccc1)N(Cc1ccccc1)Cc1ccccc1`, the TGI was above 100 µM in assay [1]; above 100 µM in assay [2]; above 31.6 µM in [3]; above 100 µM in [4]; 47.7 µM in assay [5]; above 31.6 µM in [6]. Further, the TGI in assay [7] is above 100 µM; in assay [8], above 31.6 µM; in [9] it was above 31.6 µM; in assay [10] it was above 31.6 µM.

The GI50 is the concentration at which growth is held to half of that of the control. What is called TGI is the concentration at which net growth stops. High values mean lower sensitivity of the cells, low ones greater sensitivity of the cells.
